What all share (type): in vivo
For one test, the system named is rat PTMG model. As to the kind of experiment: Rat PTMG myasthenia gravis model induced by anti-acetylcholine receptor monoclonal antibody (mAb35). As to conditions: 0-72 hr after antibody. The method, then: (§1) 5-week-old female rats (n=20, LEW/CrlCrlj, 4 weeks old when carried in, Jackson Laboratory Japan) were divided into four groups (Group A, Group B, Group C, and Group D) using body weight measurement results as indexes. Vehicle was administered to Group A, and the test compound MuSK7-pal dissolved in vehicle was administered intravenously to each of Group B (3 mg/kg), Group C (2 mg/kg), and Group D (1 mg/kg) (Day 0). Two hours after intravenous administration, an anti-nicotinic acetylcholine receptor monoclonal antibody (mAb35, National Hospital Organization Nagasaki Kawatana Medical Center) dissolved in PBS (pH 7.4) as a drug for inducing the pathology of myasthenia gravis was administered intraperitoneally to all animals at 200 µg/rat (Day 0). The vehicle, which was a solvent of the compound, was phosphate-buffered saline (PBS) at pH 7.4 containing 20% hydroxypropyl-β-cyclodextrin and 0.02% polysorbate 80 (the same applies to Example 3(2)).
Next, the body weight of the animals was measured before antibody administration (pre) and at 0, 9, 24, 33, 48, 57, and 72 hours (hr) after antibody administration. The movement, muscle strength, and grip strength of the animals were evaluated by the following tests. […]
as §1, with “(n=24,” for “(n=20,”, “(0.5” for “(3”, “(0.25” for “(2”, “(0.1” for “(1”, “0).” for “0). The vehicle, which was a solvent of the compound, was phosphate-buffered saline (PBS) at pH 7.4 containing 20% hydroxypropyl-β-cyclodextrin and 0.02% polysorbate 80 (the same applies to Example 3(2)).”
The movement of the animals was evaluated at each time point of 9, 24, 33, 48, 57, and 72 hours (hr) after antibody administration according to six-level evaluation criteria (Score). The evaluation criteria were the same as those in (1) B above. […]

For test [1], the system named is rat PTMG model using anti-acetylcholine receptor monoclonal antibody (mAb35). Briefly: Movement score in rat PTMG model. How it is done: as §1
The movement of the animals was evaluated at each time point of 9, 24, 33, 48, 57, and 72 hours (hr) after antibody administration according to six-level evaluation criteria (Score). The evaluation criteria were as follows. • 0: Normal • 1: Reduced grip strength in forelimbs and hindlimbs • 2: Incomplete paralysis of hindlimbs • 3: Complete paralysis of hindlimbs and inability to stand • 4: Moribund • 5: Death
The average score of the rats in each group was calculated. In addition, in a cage in which a rat determined to have a score of 2 or higher was present, crushed transport agar (manufactured by Oriental Yeast Co., Ltd.) and pellet feed were provided.
as §1, with “(n=24,” for “(n=20,”, “(0.5” for “(3”, “(0.25” for “(2”, “(0.1” for “(1”, “0).” for “0). The vehicle, which was a solvent of the compound, was phosphate-buffered saline (PBS) at pH 7.4 containing 20% hydroxypropyl-β-cyclodextrin and 0.02% polysorbate 80 (the same applies to Example 3(2)).”
The movement of the animals was evaluated at each time point of 9, 24, 33, 48, 57, and 72 hours (hr) after antibody administration according to six-level evaluation criteria (Score). The evaluation criteria were the same as those in (1) B above.
(§2) 5-week-old female rats (LEW/CrlCrlj, 4 weeks old when carried in, Jackson Laboratory Japan) were divided into three groups (Group A, Group B, and Group C) using body weight measurement results as indexes. The test compound (tetramer of Ub012 (EAAAK)3) dissolved in vehicle was administered intravenously to Group A (5 mg/kg) (n=5), the test compound (tetramer of Ub012(ΔGG) (EAAAK)3) dissolved in vehicle was administered intravenously to Group B (5 mg/kg) (n=5), and vehicle was administered intravenously to Group C (n=5), respectively (Day 0). Two hours after intravenous administration, an anti-nicotinic acetylcholine receptor monoclonal antibody (mAb35, National Hospital Organization Nagasaki Kawatana Medical Center) dissolved in PBS (pH 7.4) as a drug for inducing the pathology of myasthenia gravis was administered intraperitoneally to all animals at 200 µg/rat (Day 0).
The movement of the animals was evaluated at each time point of 9, 24, 33, 48, 57, and 72 hours (hr) after antibody administration according to six-level evaluation criteria (Score). The evaluation criteria were the same as those in Example 3(1) B.

The test system is the same in test [2]. Briefly: Body weight change in rat PTMG model (myasthenia gravis model animals). As to conditions: 0 to 72 hr. The method, then: as §1
Next, the body weight of the animals was measured before antibody administration (pre) and at 0, 9, 24, 33, 48, 57, and 72 hours (hr) after antibody administration. The movement, muscle strength, and grip strength of the animals were evaluated by the following tests.
5-week-old female rats (n=24, LEW/CrlCrlj, 4 weeks old when carried in, Jackson Laboratory Japan) were divided into four groups (Group A, Group B, Group C, and Group D) using body weight measurement results as indexes. Vehicle was administered to Group A, and the test compound MuSK7-pal dissolved in vehicle was administered intravenously to each of Group B (0.5 mg/kg), Group C (0.25 mg/kg), and Group D (0.1 mg/kg) (Day 0). Two hours after intravenous administration, an anti-nicotinic acetylcholine receptor monoclonal antibody (mAb35, National Hospital Organization Nagasaki Kawatana Medical Center) dissolved in PBS (pH 7.4) as a drug for inducing the pathology of myasthenia gravis was administered intraperitoneally to all animals at 200 µg/rat (Day 0).
as §2

Bridge positions count the residues as written; N and C are the ends. Square brackets hold non-standard residues; d marks the D form. Peptide text beside a SMILES is read from it. I, II: the chains in the order shown. * marks the point of attachment. Palmitoyl = CCCCCCCCCCCCCCCC(=O)*; PEG3 = NCCOCCOCCOCCC(=O)O; Dap = NC[C@H](N)C(=O)O

`CCCCCCCCCCCCCCCC(=O)NCCCC[C@H](NC(=O)[C@H](CNC(=O)CCOCCOCCOCCNC(=O)CNC(=O)[C@@H]1CSCC(=O)N[C@H](Cc2ccc(O)cc2)C(=O)N2CCC[C@H]2C(=O)N[C@@H](CO)C(=O)N[C@@H](Cc2ccc(O)cc2)C(=O)N[C@@H](Cc2c[nH]cn2)C(=O)N[C@@H]([C@@H](C)O)C(=O)N[C@@H](CC(N)=O)C(=O)N[C@@H](C(C)C)C(=O)N[C@@H](C(C)C)C(=O)N[C@@H](C)C(=O)N[C@@H](CO)C(=O)N[C@@H](CC(C)C)C(=O)N[C@@H](CCCCN)C(=O)N[C@@H](CCCNC(=N)N)C(=O)N1)NC(=O)CCOCCOCCOCCNC(=O)CNC(=O)[C@@H]1CSCC(=O)N[C@H](Cc2ccc(O)cc2)C(=O)N2CCC[C@H]2C(=O)N[C@@H](CO)C(=O)N[C@@H](Cc2ccc(O)cc2)C(=O)N[C@@H](Cc2c[nH]cn2)C(=O)N[C@@H]([C@@H](C)O)C(=O)N[C@@H](CC(N)=O)C(=O)N[C@@H](C(C)C)C(=O)N[C@@H](C(C)C)C(=O)N[C@@H](C)C(=O)N[C@@H](CO)C(=O)N[C@@H](CC(C)C)C(=O)N[C@@H](CCCCN)C(=O)N[C@@H](CCCNC(=N)N)C(=O)N1)C(N)=O` [MuSK7-pal] (I: {CH2CO}-[dY]PSYHTNVVASLKRCG[PEG3][Dap]K(Palmitoyl)-NH2 / II: {CH2CO}-[dY]PSYHTNVVASLKRCG[PEG3]; amide I:18-II:C; thioether I:N-I:15, II:N-II:15): the body weight change result in the test with rat PTMG model (0.1 mg/kg intravenous (Group D, low-dose study)) is on record as “the degree of decrease in body weight was milder than that in Group A”; with rat PTMG model (0.25 mg/kg intravenous (Group C, low-dose study)), “the degree of decrease in body weight was milder than that in Group A”; in the test with rat PTMG model (0.5 mg/kg intravenous (Group B, low-dose study)), “the degree of decrease in body weight was milder than that in Group A”; in the test on rat PTMG model (2 mg/kg intravenous (Group C, high-dose study)) it was “the degree of decrease in body weight was milder than that in Group A”; with rat PTMG model (3 mg/kg intravenous (Group B, high-dose study)), “the degree of decrease in body weight was milder than that in Group A”. The movement score entry was “the scores remained low compared to the control group” in test [1] (0.1 mg/kg intravenously (Group D, Example 3(2)), not significant vs Group A); “significantly lower than those in Group A at all measurement points except at 9 hr and at 57 hr” in test [1] (0.25 mg/kg intravenously (Group C, Example 3(2)), Dunn's test); “significantly lower than those in Group A at all measurement points after 24 hr” in test [1] (0.5 mg/kg intravenously (Group B, Example 3(2)), Dunn's test); 0 in test [1] (1 mg/kg intravenously (Group D, Example 3(1)), all individuals, all measurement points, score 0-5); “the scores remained low at all measurement points” in test [1] (2 mg/kg intravenously (Group C, Example 3(1)), 9 to 72 hr, score 0-5); “the scores remained low at all measurement points” in test [1] (3 mg/kg intravenously (Group B, Example 3(1)), 9 to 72 hr, score 0-5). Moreover, the body weight result was “milder than that in Group A” in test [2] (0.1 mg/kg intravenously 2 h before mAb35 (Group D, Example 3(2))); “milder than that in Group A” in test [2] (0.25 mg/kg intravenously 2 h before mAb35 (Group C, Example 3(2))); “milder than that in Group A” in test [2] (0.5 mg/kg intravenously 2 h before mAb35 (Group B, Example 3(2))); “almost no significant decrease in body weight” in test [2] (1 mg/kg intravenously 2 h before mAb35 (Group D, Example 3(1))); “milder than that in Group A” in test [2] (2 mg/kg intravenously 2 h before mAb35 (Group C, Example 3(1))); “milder than that in Group A” in test [2] (3 mg/kg intravenously 2 h before mAb35 (Group B, Example 3(1))).

The record behind these values is patent publication EP4722228A1, “NEW COMPOUND TARGETING MUSK AND USE THEREOF” (The University of Tokyo, priority 2023, dated 2024).
